Patent publication US8053634B2, “Stabilization and blueing of anthocyanin pigments using gene encoding aromatic acyltransferase capable of transferring an aromatic acyl group to the 3′-position of anthocyanin” (Suntory Holdings Limited, priority 2004, dated 2011)

Assays:
[1] = target: T1, recombinant acyltransferase derived from Gentiana triflora expressed in E. coli (Gentiana triflora, UniProt Q9ZWR8); experiment: Measurement of activity of recombinant acyltransferase (HPLC analysis of reaction products); format: biochemical; settings: for amount of product formed in time course of the reaction: 25-fold diluted enzyme, DEL 3G-5G-3′G 50, 100 or 200 μM as substrate, 2.5-20 minutes
T1 construct: a fragment containing the coding region of the acyltransferase and the 3′-untranslated region was subcloned to the NcoI/HindIII site; made in house; host or cells: E. coli JM109 (pQE8, derived from pQE60)
T1 sequence (Q9ZWR8 1-469): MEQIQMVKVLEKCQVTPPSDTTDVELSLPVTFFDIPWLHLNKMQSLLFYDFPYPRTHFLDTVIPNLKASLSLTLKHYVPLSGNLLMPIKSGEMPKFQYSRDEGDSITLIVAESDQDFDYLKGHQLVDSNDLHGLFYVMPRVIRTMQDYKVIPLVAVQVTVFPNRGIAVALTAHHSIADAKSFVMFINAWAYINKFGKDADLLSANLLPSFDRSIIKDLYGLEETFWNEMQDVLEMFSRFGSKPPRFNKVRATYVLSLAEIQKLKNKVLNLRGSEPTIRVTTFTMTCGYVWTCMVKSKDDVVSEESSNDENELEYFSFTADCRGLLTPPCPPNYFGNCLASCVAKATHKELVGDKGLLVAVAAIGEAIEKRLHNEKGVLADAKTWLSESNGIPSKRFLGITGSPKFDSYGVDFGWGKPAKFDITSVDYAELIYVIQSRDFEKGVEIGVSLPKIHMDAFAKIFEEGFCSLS
Method: The enzymatic activity of the recombinant enzyme obtained in Example 1 was measured with 3 types of delphinidin derivatives (delphinidin 3,5,3′-triglucoside (DEL 3G-5G-3′G), delphinidin 3-glucosyl-5-caffeoylglucosyl-3′-glucoside (DEL 3G-5CafG-3′G), delphinidin 3-glucosyl-5-glucosyl-3′-caffeoylglucoside (DEL 3G-5G-3′CafG)) shown in FIG. 1 and FIG. 2 as substrates. The reaction mixture contained 100 mM potassium phosphate buffer (pH 8.5), 0.2 mM caffeoyl-CoA, […] each of the above substrates and 5 μl of the enzyme solution in a total volume of 50 μl, and the reaction was carried out at 30° C. for 15 minutes. An equal volume of 90% acetonitrile solution containing 0.1% trifluoroacetic acid (TFA) was added to the reaction mixture to stop the reaction.
In order to analyze time course changes of reaction products, 5 μl of a 25-fold diluted enzyme solution and each of 50 μM, 100 μM or 200 μM of DEL 3G-5G-3′G were used as a substrate, and the reaction was stopped at 2.5, 5, 10, and 20 minutes later to analyze the products. The reaction products were analyzed with a reverse phase high performance liquid chromatography (HPLC) using a DE-41 column (4.6×250 mm, Shodex). Samples were eluted with an liner gradient of 20-50% of acetonitrile containing 0.5% TFA at 0.6 ml/min for 15 minutes, and then isoclatic elution at 0.6 ml/min for 10 minutes, and detected with SPD-M10A (SHIMAZU Corporation) at a wavelength of 250-600 nm. The HPLC elution time and absorption spectra of products were compared with those of authentic samples to identify the structure of products.

[2] = target: T2, aromatic acyltransferase purified from gentian petals (Gentiana triflora, UniProt Q9ZWR8); experiment: Activity of aromatic acyltransferase purified from gentian petals (active fraction adsorbed to Dyematrix column Red); format: biochemical; settings: as in Example 2
T2 construct: an enzyme naturally occurring in gentian petals also has both activities; from tissue; host or cells: Gentiana petals
T2 sequence (Q9ZWR8 1-469): T1 sequence (Q9ZWR8 1-469)
Excerpt: The recombinant protein obtained by expressing a gentian cDNA of an aromatic acyltransferase in E. coli turned out to have an activity of transferring aromatic acyl groups to glucoses at the 5 and the 3′ position of a anthocyanin (Example 2). In order to confirm that an enzyme naturally occurring in gentian petals also has both activities of the 5-aromatic acyltransferase and the 3′-aromatic acyl transferase, this enzyme was purified from gentian petals. In a series of purification, as described in Example 2, each eluted fraction of column chromatography was measured for 5-aromatic acyltransferase activity with DEL 3G-5G as a substrate and for 3′-aromatic acyltransferase activity with DEL 3G-5G-3′G as a substrate.
According to a report by Fujiwara et al. (Fujiwara et al., Eur. J. Biochem. 249: 45, 1997) in which a gentian 5-aromatic acyltransferase was purified, 40-70% ammonium sulfate-saturated fraction was obtained from extract of approximately 100 g of Gentiana petals. This fraction was dialyzed with Sephadex G-25 (Pharmacia) equilibrated with 20 mM Tris-HCl (pH 7.0) containing 10 μM p-aminophenylmethanesulfonyl fluoride (APMSF) and 1 mM DTT (hereinafter referred to as the Tris buffer), then it was loaded to MONO Q (Pharmacia) equilibrated with the Tris buffer. […]
The active fractions were loaded to HiTrap Blue (Pharmacia) and extensively washed in the Tris buffer, and then the adsorbed fraction was eluted with a Tris buffer containing 0.9 M NaCl. […] When the eluted protein was subject to SDS-PAGE, only a single band was detected at molecular weight of 52 kDa which is an estimated molecular weight for an anthocyanin 5-acyltransferase.
In a series of purifications, each eluted fraction of column chromatography was measured for the 5-aromatic acyltransferase activity with DEL 3G-5G as a substrate and for the 5,3′-aromatic acyltransferase activity with DEL 3G-5G-3′G as a substrate, and the fractions with the highest activity in both acyltransferase reactions were completely identical.

[3] = target: T3, 5,3′-aromatic acyltransferase from Gentiana triflora expressed in nierembergia (Gentiana triflora, UniProt Q9ZWR8); experiment: In vitro 5,3′-aromatic acyltransferase activity of crude enzyme from petals of nierembergia transformants; format: biochemical; settings: in a manner similar to Example 2
T3 construct: expressed in transfected cells; host or cells: petals of transgenic nierembergia (binary construct pSPB1536, 35S promoter)
T3 sequence (Q9ZWR8 1-469): T1 sequence (Q9ZWR8 1-469)
Excerpt: On the other hand, a crude enzyme was extracted from the petals of the transformants where transcription of all three genes were confirmed, in a manner as described in the report by Fujiwara et al. (Fujiwara et al., (1997) Eur. J. Biochem. 249: 45-51). […] On the other hand, when the crude enzyme from a non-recombinant nierembergia was used as the control, gentiodelphin was not detected.

[4] = Flower color simulation: purified pigment in juice squeezed from rose petals (cv. Medeo); format: physicochemical; settings: Medeo squeezed juice (petal pH 4.38), diluted 4-fold; among five purified pigments
Method: In order to simulate the flower color when the gene for gentian anthocyanin 5,3′-acyltransferase was introduced into roses and DEL 3G-5CafG-3′CafG was accumulated in rose petals, the color development of a purified pigment suspended in juice squeezed form rose petals (cv. Medeo) was measured. As for purified pigments, DEL 3G-5CafG-3′CafG, and as a comparative control, DEL 3G-5G, cyanidin 3,5-diglucoside (CYA 3G-5G), pelargonidin 3,5-diglucoside (PEL 3G-5G) and malvidin 3,5-diglucoside (MAL 3G-5G) were used. About 20 g of Medeo petals frozen at −80° C. for more than one hour were squeezed by a garlic squeezer for household use, and centrifuged at 1000 rpm for 1 minute to remove the debris of the petals, and the supernatant was prepared as the squeezed juice.
Twenty μl of 50 mM DMSO solution of purified pigment was added to 1 ml of the squeezed juice, and kept for 10 minutes, and the absorption and transmittance spectra at 380-780 nm were measured with a spectrophotometer UV-2500PC(SHIMADZU Corporation). The transmittance spectrum values were converted into CIE L*a*b* color system (JISZ8729). […] However, since the absorbance for 3G-5CafG-3′CafG was too high, it was diluted 4-fold prior to measurement.

[5] = among four delphinidin glucosides, cited from earlier work
[6] = 250 mM substrate, 0.2 mM caffeoyl-CoA, pH 8.5, 30° C., 15 minutes, undiluted enzyme

Molecule	substrate converted to DEL 3G-5CafG-3′CafG [1, 6] [%]	amount of product formed in time course of the reaction [1]	reaction of the enzyme purified from gentian petals with the substrate [2]	substrate converted to DEL 3G-5CafG-3′G (acyl group at the 5 position alone) [1, 6] [%]	substrate converted to DEL 3G-5G-3′CafG (acyl group at the 3′ position alone) [1, 6] [%]	product formation from the substrate by crude enzyme of transgenic nierembergia [3]	maximum absorption spectrum (relative) [4]	absorbance maximum (relative wavelength) [5]	blueness (relative) [5]	relative stability (fading) ([5]; aqueous solution of pH 6.5)
delphinidin 3-glucosyl-5-glucosyl-3′-caffeoylglucoside [DEL 3G-5G-3′CafG]	95.2	barely detected	reacted							
OC[C@H]1O[C@@H](Oc2cc3c(O[C@@H]4O[C@H](CO)[C@@H](O)[C@H](O)[C@H]4O)cc(O)cc3[o+]c2-c2cc(O)c(O)c(O[C@@H]3O[C@H](CO)[C@@H](O)[C@H](O)[C@H]3O)c2)[C@H](O)[C@@H](O)[C@@H]1O [DEL 3G-5G-3′G, delphinidin 3,5,3′-triglucoside]	58.7		reacted	7.2	≤ 1	formation of gentiodelphin was confirmed				
O=C(/C=C/c1ccc(O)c(O)c1)OC[C@H]1O[C@@H](Oc2cc(-c3[o+]c4cc(O)cc(O[C@@H]5O[C@H](COC(=O)/C=C/c6ccc(O)c(O)c6)[C@@H](O)[C@H](O)[C@H]5O)c4cc3O[C@@H]3O[C@H](CO)[C@@H](O)[C@H](O)[C@H]3O)cc(O)c2O)[C@H](O)[C@@H](O)[C@@H]1O [DEL 3G-5CafG-3′CafG, gentiodelphin]		increased according to the reaction time					largest maximum absorption spectrum	longest wavelength	most blueish	most stable and refractory to fading
delphinidin 3-glucosyl-5-caffeoylglucosyl-3′-glucoside [DEL 3G-5CafG-3′G]	94.1	increased according to the reaction time	reacted							
